Measured values taken from patent US20250002450A1, “CATIONIC STEROID COMPOUNDS, METHOD OF OBTAINING THEREOF, FORMULATIONS COMPRISING THEREOF AND THEIR USES” (UNIVERSIDADE DO PORTO, priority 2021, published 2025).

How the values were obtained:
[1] = test system: C. albicans ATCC 10231; experiment: Germ tube formation; format: cell-based, Candida albicans; settings: 3 h
Method: The effect of compound 1 in germ tube formation of C. albicans ATCC 10231 was determined as previously described. Briefly, cell suspensions were prepared in NYP medium (N-acetylglucosamine [Sigma, St. Louis, MO, USA; 10-3 mol/L], yeast nitrogen base [Difco, New Jersey, USA; 3.35 g/L], proline [Fluka, Buchs, St. Gallen, Switzerland; 10^−3 mol/L], and NaCl [4.5 g/L], pH 6.7±0.1) and adjusted to a density of (1.0±0.2)×10^6 CFU/mL, as determined by cell counts using a haemocytometer. An appropriate volume of compound stock solution at 10 mg/mL was added to obtain final concentrations ranging between 64 and 8 μg/mL. Filamentation controls were included in each assay with and without 0.64% DMSO. Following a 3 h incubation at 37° C., 100 cells from each sample were counted, using a haemocytometer, and the percentage of germ tubes was determined. Three independent assays were performed.

[2] = test system: yeasts and filamentous fungi, including dermatophytes; experiment: Antifungal activity, whole strain panel; format: cell-based; settings: all microorganisms tested (Table 2)
Method: The antifungal activity of compound 1 was evaluated for a wide range of fungal species, covering yeasts and filamentous fungi, including dermatophytes. […] This antimicrobial effect was fungicidal, with minimal lethal concentrations (MLC) being equal to, or one or two-fold higher than the respective MIC. Twenty-three fungal strains were used in this study, including reference strains and clinical isolates of yeasts and filamentous fungi. Yeast strains included reference strains (ATCC—American Type Culture Collection and CECT—Colección Española de Cultivos Tipo) and clinical isolates: C. albicans ATCC 10231, Candida krusei ATCC 6258, C. albicans H37, C. albicans FF172, C. albicans FF176, C. albicans DSY294, C. albicans DSY296, C. glabrata DSY562, C. glabrata DSY565 and Cryptococcus neoformans CECT 1078. […]
Antifungal activity was evaluated by determining the MIC of compound 1 by the broth microdilution method, according to CLSI guidelines (reference documents M27-A3 for yeasts and M38-A2 for filamentous fungi). […] The minimal lethal concentration (MLC) was determined by spreading 20 μL of culture collected from wells showing no visible growth on SDA plates. The MLC was determined as the lowest concentration showing complete growth inhibition after 48 h at 35 degrees C., 48 h at 25 degrees C. […]

[3] = test system: E. faecalis ATCC 29212; experiment: Bacterial biofilm formation inhibition (crystal violet); format: cell-based, Enterococcus faecalis
Method: In an embodiment, the antibiofilm activity of compound 1 was performed as follows. Given its bactericidal effect, the impact of compound 1 on the biofilm formation of reference strains was studied.
The effect of compound 1 on bacterial biofilm formation was evaluated through quantification of total biomass, using the crystal violet method, as previously described ([FIG. 6]). […] A control with an appropriate concentration of DMSO, as well as a negative control (TSB alone) was included. Sterile 96-well flat-bottomed untreated polystyrene microtiter plates were used. After a 24 h incubation at 37 degrees C., the biofilms were heat-fixed for 1 h at 60 degrees C. and stained with 0.5% (v/v) crystal violet (Quimica Clinica Aplicada, Amposta, Spain) for 5 min. The stain was resolubilized with 33% (v/v) acetic acid (Acetic acid 100%, AppliChem, Darmstadt, Germany) and the biofilm biomass was quantified by measuring the absorbance of each sample at 570 nm in a microplate reader (Thermo Scientific Multiskan® EX, Thermo Fisher Scientific, Waltham, MA, USA). The background absorbance (TSB or TSB+1% glucose without inoculum) was subtracted from the absorbance of each sample and the data are presented as a percentage of control. Three independent assays were performed for reference strains, with triplicates for each experimental condition.

## C[C@H](CCC(=O)NCCN)[C@H]1CC[C@H]2[C@@H]3CC[C@@H]4C[C@H](O)CC[C@]4(C)[C@H]3C[C@H](O)[C@]12C [Compound 1, (R)—N-(2-aminoethyl)-4-((3R,5R,8R,9S,10S,12S,13R,14S,17R)-3,12-dihydroxy-10,13-dimethylhexadecahydro-1H-cyclopenta[a]phenanthren-17-yl) pentanamida]
[1]; 64 μg/mL (MIC)
  dimorphic transition / germ tube formation (in words): complete inhibition of dimorphic transition
[1]; 32 and 16 μg/mL (½×MIC and ¼×MIC)
  dimorphic transition / germ tube formation (in words): significant inhibition
[2]
  spectrum of antifungal activity (in words): active against all microorganisms tested
[3]; 2×MIC and MIC, 24 h
  biofilm formation (in words): significantly inhibited
[3]; 80% reduction of biofilm formation, E. faecalis ATCC 29212
  minimal biofilm inhibitory concentration (MBIC): < 4 µg/mL
